Here are results for 13 compounds from patent US10077261B2, “Imidazolin-5-one derivative useful as FASN inhibitors for the treatment of cancer” (Janssen Pharmaceutica NV, priority 2012, dated 2018).

The target in experiment [1] is T1, hFASN enzyme (full length) (Homo sapiens, UniProt P49327).
T1 construct: 10 μL hFASN enzyme (full length, 300 ng, purified in house); made in house
Kind of experiment: Fatty Acid Synthase (FASN) inhibition scintillation proximity assay. It counts as biochemical. As to conditions: for inhibition at 10 µM: read-out: Human FASN % inhibition @ 10 μM, 10 μM test compound; for IC50: read-out: Human FASN pIC50 (converted). Put shortly:
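Purified full-length hFASN (300 ng) converts ^3H-acetyl-CoA plus malonyl-CoA to ^3H-palmitate in 100 mM KH2PO4 pH 7.5, 1 mM DTT; compounds tested at 0.01–30 μM. Product captured on streptavidin imaging beads and read by LEADseeker at 610 nm after ≥24 h; 4-parameter logistic fit versus controls.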

Experiment [2] deals with A2780 ovarian cells. The experiment in a line: A2780 ovarian cell proliferation assay in lipid reduced medium, without palmitate (MTT). The format is cell-based. As to conditions: Homo sapiens, A2780, 96 h; read-out: pIC50 A2780 Ovarian Cell, Without Palmitate (converted).
Experiment [3] deals with Fatty Acid Synthase Keto-reductase Domain (FASN KR) (Homo sapiens, UniProt P49327). Kind of experiment: Fatty Acid Synthase keto-reductase domain (FASN KR) inhibition, NADPH oxidation at 340 nm.
Method: After 20 minutes incubation at room temperature the plate was measured again (T2).
The decrease in absorbance was calculated as (Absorbance before incubation T1)−(Absorbance following incubation T2).
A plot of Controlmin versus test compound concentration was fitted to a 4-parameter logistic curve using a non-linear least squares regression method.
Experiment [4] relates to A2780 ovarian cells. The experiment in a line: A2780 ovarian cell proliferation assay in lipid reduced medium, with palmitate (MTT). As to conditions: Homo sapiens, A2780, 96 h; read-out: pIC50 A2780 Ovarian Cell, With Palmitate (converted). It counts as cell-based. Put shortly:
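Seeded cells were switched next day to lipid-reduced serum, exposed to compound and 25 μM palmitate complexed with fatty-acid-free BSA, and incubated 96 h. Proliferation was then determined by MTT absorbance at 544 nm, with a best-fit curve of signal against concentration.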

One may read the inhibition as the relative decrease from the control value, in per cent.

Sequence of Fatty Acid Synthase Keto-reductase Domain (FASN KR) (P49327 whole entry, the tested form may be a part): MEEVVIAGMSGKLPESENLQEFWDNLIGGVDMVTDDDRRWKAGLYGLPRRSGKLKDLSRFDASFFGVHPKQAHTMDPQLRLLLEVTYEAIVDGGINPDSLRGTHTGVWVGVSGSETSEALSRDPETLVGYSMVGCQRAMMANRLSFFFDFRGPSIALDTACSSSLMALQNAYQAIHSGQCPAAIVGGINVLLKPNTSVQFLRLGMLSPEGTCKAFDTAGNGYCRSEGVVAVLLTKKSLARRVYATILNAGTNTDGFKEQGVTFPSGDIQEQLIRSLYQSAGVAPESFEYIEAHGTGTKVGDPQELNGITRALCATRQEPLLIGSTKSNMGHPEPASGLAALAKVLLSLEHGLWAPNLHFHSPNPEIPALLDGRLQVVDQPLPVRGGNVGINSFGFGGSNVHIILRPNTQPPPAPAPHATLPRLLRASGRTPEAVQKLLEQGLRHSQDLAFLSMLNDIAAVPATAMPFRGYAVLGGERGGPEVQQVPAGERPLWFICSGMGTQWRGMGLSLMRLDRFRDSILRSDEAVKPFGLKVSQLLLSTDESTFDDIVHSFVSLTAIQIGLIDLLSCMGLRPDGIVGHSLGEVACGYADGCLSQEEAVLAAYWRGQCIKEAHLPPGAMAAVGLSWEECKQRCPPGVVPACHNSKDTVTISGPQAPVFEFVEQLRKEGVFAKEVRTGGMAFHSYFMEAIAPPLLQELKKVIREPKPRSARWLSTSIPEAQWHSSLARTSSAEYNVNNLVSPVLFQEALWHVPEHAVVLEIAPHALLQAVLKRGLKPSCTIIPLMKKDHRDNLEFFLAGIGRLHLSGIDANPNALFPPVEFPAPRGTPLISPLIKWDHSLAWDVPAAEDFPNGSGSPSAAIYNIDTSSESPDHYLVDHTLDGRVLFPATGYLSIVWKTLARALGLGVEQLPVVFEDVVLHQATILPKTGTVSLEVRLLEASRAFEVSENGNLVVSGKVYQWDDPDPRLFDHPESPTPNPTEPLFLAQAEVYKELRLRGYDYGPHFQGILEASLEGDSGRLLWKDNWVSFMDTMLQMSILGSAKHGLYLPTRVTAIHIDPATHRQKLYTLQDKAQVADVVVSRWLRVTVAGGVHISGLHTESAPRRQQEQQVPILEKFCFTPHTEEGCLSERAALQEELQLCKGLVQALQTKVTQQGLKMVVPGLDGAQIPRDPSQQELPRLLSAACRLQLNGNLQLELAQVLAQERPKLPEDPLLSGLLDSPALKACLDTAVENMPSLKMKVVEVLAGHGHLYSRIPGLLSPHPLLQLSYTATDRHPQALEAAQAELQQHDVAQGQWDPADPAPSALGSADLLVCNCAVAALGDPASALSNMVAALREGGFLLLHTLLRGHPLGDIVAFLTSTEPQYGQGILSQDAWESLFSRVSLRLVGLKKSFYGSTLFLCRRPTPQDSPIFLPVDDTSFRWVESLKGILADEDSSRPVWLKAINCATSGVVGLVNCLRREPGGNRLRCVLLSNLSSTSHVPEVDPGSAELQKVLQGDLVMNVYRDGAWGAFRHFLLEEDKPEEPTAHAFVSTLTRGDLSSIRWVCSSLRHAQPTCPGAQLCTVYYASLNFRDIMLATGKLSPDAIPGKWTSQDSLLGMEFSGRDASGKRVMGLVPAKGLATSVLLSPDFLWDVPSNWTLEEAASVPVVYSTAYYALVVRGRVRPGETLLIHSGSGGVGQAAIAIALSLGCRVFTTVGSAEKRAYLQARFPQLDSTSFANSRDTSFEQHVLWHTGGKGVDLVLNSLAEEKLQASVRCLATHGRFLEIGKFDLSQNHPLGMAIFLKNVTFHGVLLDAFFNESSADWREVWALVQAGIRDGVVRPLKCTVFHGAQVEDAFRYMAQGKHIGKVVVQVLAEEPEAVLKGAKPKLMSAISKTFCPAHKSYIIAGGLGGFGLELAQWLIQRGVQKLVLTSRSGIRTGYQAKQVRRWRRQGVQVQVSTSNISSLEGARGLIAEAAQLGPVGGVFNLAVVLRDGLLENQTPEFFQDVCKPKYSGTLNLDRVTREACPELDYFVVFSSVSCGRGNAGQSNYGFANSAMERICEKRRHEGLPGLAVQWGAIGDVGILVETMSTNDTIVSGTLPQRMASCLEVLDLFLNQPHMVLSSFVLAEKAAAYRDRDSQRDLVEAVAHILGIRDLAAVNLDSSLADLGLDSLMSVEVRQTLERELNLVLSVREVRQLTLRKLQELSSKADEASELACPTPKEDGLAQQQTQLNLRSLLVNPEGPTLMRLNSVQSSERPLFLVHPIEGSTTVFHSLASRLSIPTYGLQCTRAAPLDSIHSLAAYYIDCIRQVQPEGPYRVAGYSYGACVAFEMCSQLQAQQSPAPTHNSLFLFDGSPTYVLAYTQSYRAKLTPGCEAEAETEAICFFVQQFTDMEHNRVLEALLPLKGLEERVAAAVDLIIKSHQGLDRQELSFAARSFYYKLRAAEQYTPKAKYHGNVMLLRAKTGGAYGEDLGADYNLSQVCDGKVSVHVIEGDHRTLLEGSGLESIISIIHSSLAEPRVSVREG
T1 sequence (P49327 whole entry): as the sequence (P49327 whole entry, the tested form may be a part) above

Take `Cc1cc2cc(-c3ccc(C4=NC5(CC5)C(=O)N4C[C@@H]4CCN(C(=O)C5CC5)C4)c(C)c3)ccc2o1` [compound 280, (R)-6-((1-(cyclopropanecarbonyl)pyrrolidin-3-yl)methyl)-5-(2-methyl-4-(2-methylbenzofuran-5-yl)phenyl)-4,6-diazaspiro[2.4]hept-4-en-7-one]: the inhibition at 10 µM in experiment [1] amounted to 109%. In addition, the IC50 in experiment [1] was 30.2 nM; with A2780 ovarian cells [2], around 1950 nM; in experiment [3], 126 nM; with A2780 ovarian cells [4], above 10000 nM.
Take `Cc1cc2cc(-c3ccc(C4=NC5(CC5)C(=O)N4C[C@@H]4CCN(C(=O)C5CC5)C4)c(C)c3)ccc2s1` [compound 281, (R)-6-((1-(cyclopropanecarbonyl)pyrrolidin-3-yl)methyl)-5-(2-methyl-4-(2-methylbenzo[b]thiophen-5-yl)phenyl)-4,6-diazaspiro[2.4]hept-4-en-7-one]: the inhibition at 10 µM in experiment [1] stood at 114%. Moreover, the IC50 in experiment [1] is 44.7 nM; with A2780 ovarian cells [2], around 813 nM; in experiment [3] it was 110 nM; in the experiment on A2780 ovarian cells [4] it was above 6170 nM.
Take `Cc1cc(-c2ccc3sc(C)c(C)c3c2)ccc1C1=NC2(CC2)C(=O)N1C[C@@H]1CCN(C(=O)C2CC2)C1` [compound 283, (R)-6-((1-(cyclopropanecarbonyl)pyrrolidin-3-yl)methyl)-5-(4-(2,3-dimethylbenzo[b]thiophen-5-yl)-2-methylphenyl)-4,6-diazaspiro[2.4]hept-4-en-7-one]: in experiment [1], the inhibition at 10 µM is 112%. The IC50 in experiment [1] was 41.7 nM; with A2780 ovarian cells [2], around 1860 nM; in experiment [3], 93.3 nM; in the experiment on A2780 ovarian cells [4] it was above 10000 nM.
For `Cc1cc(-c2ccc3occc3c2)ccc1C1=NC2(CC2)C(=O)N1CC1CN(C(=O)C2CC2)C1` [compound 287, 5-(4-(benzofuran-5-yl)-2-methylphenyl)-6-((1-(cyclopropanecarbonyl)azetidin-3-yl)methyl)-4,6-diazaspiro[2.4]hept-4-en-7-one] the same measures were 110%, 43.7 nM, around 282 nM, 166 nM and above 10000 nM.
The corresponding values for `Cc1cc2cc(-c3ccc(C4=NC5(CC5)C(=O)N4CC4CN(C(=O)C5CC5)C4)c(C)c3)ccc2o1` [compound 289, 6-((1-(cyclopropanecarbonyl)azetidin-3-yl)methyl)-5-(2-methyl-4-(2-methylbenzofuran-5-yl)phenyl)-4,6-diazspiro[2.4]hept-4-en-7-one] are 102%, 97.7 nM, 1120 nM, 324 nM and above 10000 nM.
For `Cc1cc2cc(-c3ccc(C4=NC5(CC5)C(=O)N4C[C@@H]4CCN(C(=O)C5CC5)C4)cc3F)ccc2o1` [compound 387, 6-{[(3R)-1-(Cyclopropylcarbonyl)pyrrolidin-3-yl]methyl}-5-[3-fluoro-4-(2-methyl-1-benzofuran-5-yl)phenyl]-4,6-diazaspiro[2.4]hept-4-en-7-one] the same measures were 103%, 219 nM, around 3240 nM, 759 nM and above 10000 nM.
Turning to `Cc1cc2cc(-c3ccc(C4=NC5(CC5)C(=O)N4C[C@@H]4CCN(C(=O)C5CC5)C4)cc3C)ccc2o1` [compound 388, 6-{[(3R)-1-(Cyclopropylcarbonyl)pyrrolidin-3-yl]methyl}-5-[3-methyl-4-(2-methyl-1-benzofuran-5-yl)phenyl]-4,6-diazaspiro[2.4]hept-4-en-7-one], in experiment [1], the inhibition at 10 µM was found to be 99%. For the same compound, the IC50 was 355 nM in experiment [1], around 2450 nM with A2780 ovarian cells [2], 1100 nM in experiment [3] and above 10000 nM in the experiment on A2780 ovarian cells [4].
Consider `O=C(C1CC1)N1CC(CN2C(=O)C3(CC3)N=C2c2ccc(-c3ccc4sccc4c3)c(F)c2)C1` [compound 404, 5-[4-(1-Benzothiophen-5-yl)-3-fluorophenyl]-6-{[1-(cyclopropylcarbonyl)azetidin-3-yl]methyl}-4,6-diazaspiro[2.4]hept-4-en-7-one], for which, in experiment [1], the inhibition at 10 µM was found to be 97%. Also, the IC50 was 178 nM in experiment [1], 1100 nM in the experiment on A2780 ovarian cells [2], 490 nM in experiment [3] and above 10000 nM in the experiment with A2780 ovarian cells [4].
As to `O=C(C1CC1)N1CC[C@@H](CN2C(=O)C3(CC3)N=C2c2ccc(-c3nc4ccccc4[nH]3)cc2F)C1` [compound 538, 5-[4-(1H-Benzimidazol-2-yl)-2-fluorophenyl]-6-{[(3R)-1-(cyclopropylcarbonyl)pyrrolidin-3-yl]methyl}-4,6-diazaspiro[2.4]hept-4-en-7-one], the inhibition at 10 µM in experiment [1] amounted to 99%. For the same compound, the IC50 was 170 nM in experiment [1], 132 nM in the experiment with A2780 ovarian cells [2], 331 nM in experiment [3] and around 10000 nM with A2780 ovarian cells [4].
`COCc1nn(C)c2ccc(-c3ccc(C4=NC5(CC5)C(=O)N4CC4CN(C(=O)C5CC5)C4)c(C)c3)cc12` [compound 588, 6-{[1-(Cyclopropylcarbonyl)azetidin-3-yl]methyl}-5-{4-[3-(methoxymethyl)-1-methyl-1H-indazol-5-yl]-2-methylphenyl}-4,6-diazaspiro[2.4]hept-4-en-7-one]: the inhibition at 10 µM in experiment [1] amounted to 93%. The IC50 in experiment [1] is 603 nM; with A2780 ovarian cells [2], around 676 nM; in experiment [3], 1170 nM; with A2780 ovarian cells [4] it was above 10000 nM.
With `COCc1nn(C)c2ccc(-c3ccc(C4=NC5(CC5)C(=O)N4CC4CN(C(=O)C5CC5)C4)c(F)c3)cc12` [compound 608, 6-{[1-(Cyclopropylcarbonyl)azetidin-3-yl]methyl}-5-{2-fluoro-4-[3-(methoxymethyl)-1-methyl-01H-indazol-5-yl]phenyl}-4,6-diazaspiro[2.4]hept-4-en-7-one], in experiment [1], the inhibition at 10 µM was found to be 98%. For the same compound, the IC50 in experiment [1] is 148 nM; in the experiment on A2780 ovarian cells [2], 372 nM; in experiment [3], 1020 nM; in the experiment on A2780 ovarian cells [4] it was above 10000 nM.
Regarding `CC(C)N1CCC2(CC1)N=C(c1ccc(-c3ccc4[nH]ncc4c3)cc1)N(C[C@@H]1CCN(C(=O)C3CC3)C1)C2=O` [compound 743, 3-{[(3R)-1-(Cyclopropylcarbonyl)pyrrolidin-3-yl]methyl}-2-[4-(1H-indazol-5-yl)phenyl]-8-(1-methylethyl)-1,3,8-triazaspiro[4.5]dec-1-en-4-one], the inhibition at 10 µM in experiment [1] came to 90%. The IC50 in experiment [1] was 708 nM; in the experiment on A2780 ovarian cells [2], 2090 nM; in experiment [3] it was 1580 nM; in the experiment on A2780 ovarian cells [4], above 10000 nM.
Regarding `CC(C)C(=O)N1CCC2(CC1)N=C(c1ccc(-c3ccc4[nH]ccc4c3)cc1)N(CC1CN(C(=O)C3CC3)C1)C2=O` [compound 753, 3-{[1-(Cyclopropylcarbonyl)azetidin-3-yl]methyl}-2-[4-(1H-indol-5-yl)phenyl]-8-(2-methylpropanoyl)-1,3,8-triazaspiro[4.5]dec-1-en-4-one], the inhibition at 10 µM in experiment [1] stood at 107%. Further, the IC50 was 135 nM in experiment [1], around 245 nM in the experiment on A2780 ovarian cells [2], 646 nM in experiment [3] and above 10000 nM in the experiment with A2780 ovarian cells [4].
